The target in assay [1] is T1, recombinant human serotonin transporter (Homo sapiens, UniProt P31645).
T1 construct: expressed in transfected cells; host or cells: HEK-293
Kind of assay: Serotonin functional uptake assay for human reuptake transporter. It is filed as cell-based. The note with it: [3H]serotonin uptake, HEK-293 cells expressing human serotonin transporter; read-out: Human IC50 (nM) SERT. The protocol: Serotonin Functional Uptake Assay for Human Reuptake Transporter
HEK-293 cells expressing human serotonin transporter were plated before the assay. […] Cells with internalized [^3H]serotonin were washed and the amount of tritium taken into cells is counted using a liquid scintillation counter to determine [^3H]serotonin uptake.

Assay [2] addresses T2, recombinant human norepinephrine transporter (Homo sapiens, UniProt P23975).
T2 construct: expressed in transfected cells; host or cells: HEK293 or MDCK
The assay can be described thus: Norepinephrine functional uptake assay for human reuptake transporter. Type of assay: cell-based. To be noted: [3H]norepinephrine uptake, HEK293 or MDCK cells expressing human norepinephrine transporter. The protocol: Norepinephrine Functional Uptake Assay for Human Reuptake Transporter
The cells were plated before the assay. Test compound and/or vehicle was preincubated with cells in modified HEPES buffer pH 7.1 or pH 7.4 for 20 minutes at 18 to 25° C. . […] After the cells were washed to remove [^3H]norepinephrine not internalized, the cells were lysed, and the amount of tritium in the cell lysate was measured using a liquid scintillation counter to determine [^3H]norepinephrine uptake. Non-specific binding of tritium was measured in a control reaction containing 10 μM imipramine (or 10 μM nisoxetine), and was subtracted from the counts for assays to correct for non-specific binding of tritium. Reduction of [^3H]norepinephrine uptake by 50 percent or more (≧50%) relative to an uninhibited control reaction indicates significant inhibitory activity.

The target of assay [3] is T3, recombinant human dopamine transporter (Homo sapiens, UniProt Q01959).
T3 construct: expressed in transfected cells; host or cells: CHO-K1 or HEK293
T3 sequence (Q01959 whole entry): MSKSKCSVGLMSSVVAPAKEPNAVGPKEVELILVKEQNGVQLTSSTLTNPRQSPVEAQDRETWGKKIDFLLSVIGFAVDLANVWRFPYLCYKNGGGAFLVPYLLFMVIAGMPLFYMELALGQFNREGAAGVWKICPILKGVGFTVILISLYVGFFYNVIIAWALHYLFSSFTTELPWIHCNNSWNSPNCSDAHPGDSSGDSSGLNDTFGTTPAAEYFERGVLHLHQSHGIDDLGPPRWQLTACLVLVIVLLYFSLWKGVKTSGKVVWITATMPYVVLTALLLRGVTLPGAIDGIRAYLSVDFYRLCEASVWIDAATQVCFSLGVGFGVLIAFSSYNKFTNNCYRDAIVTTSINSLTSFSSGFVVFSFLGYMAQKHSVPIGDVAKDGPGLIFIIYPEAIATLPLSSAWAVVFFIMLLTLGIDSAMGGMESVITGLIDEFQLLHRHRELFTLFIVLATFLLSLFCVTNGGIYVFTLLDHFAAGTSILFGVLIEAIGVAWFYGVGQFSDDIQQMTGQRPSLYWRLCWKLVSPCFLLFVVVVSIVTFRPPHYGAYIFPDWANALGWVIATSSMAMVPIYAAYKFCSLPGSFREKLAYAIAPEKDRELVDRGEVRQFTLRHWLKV
The assay can be described thus: Dopamine functional uptake assay for human reuptake transporter. The note with it: [3H]dopamine uptake, CHO-K1 or HEK293 cells expressing human dopamine transporter; read-out: Human IC50 (nM) DAT. It is filed as cell-based. The protocol:
Dopamine Functional Uptake Assay for Human Reuptake Transporter
Either CHO-K1 or HEK293 cells expressing human recombinant dopamine transporter were plated before the assay. Test compound and/or vehicle was preincubated with cells in modified HEPES buffer pH 7.1 or pH 7.4 for 20 minutes at 18 to 25° C. and 50 nM [^3H]dopamine was then added for an additional timed incubation period (10 to 30 minutes). After washing the cells to remove [^3H]dopamine not internalized, the cells were lysed, and the amount of tritium in the lysate was measured using a liquid scintillation counter to determine [^3H]dopamine uptake. Non-specific binding of tritium was measured in a control reaction containing 10 μM nomifensine, and was subtracted from the counts for assays to correct for non-specific binding of tritium. Reduction of [^3H]dopamine uptake by 50 percent or more (≧50%) relative to an uninhibited control reaction indicates significant inhibitory activity.

The conditions of assay [4]: in vivo; cited from earlier work.
For the next assay, the target named is serotonin uptake sites (Homo sapiens, UniProt P31645). The note with it: versus racemic 1-(3,4-dichlorophenyl)-3-azabicyclo[3.1.0]hexane; cited from earlier work.
Sequence of serotonin uptake sites (P31645 whole entry): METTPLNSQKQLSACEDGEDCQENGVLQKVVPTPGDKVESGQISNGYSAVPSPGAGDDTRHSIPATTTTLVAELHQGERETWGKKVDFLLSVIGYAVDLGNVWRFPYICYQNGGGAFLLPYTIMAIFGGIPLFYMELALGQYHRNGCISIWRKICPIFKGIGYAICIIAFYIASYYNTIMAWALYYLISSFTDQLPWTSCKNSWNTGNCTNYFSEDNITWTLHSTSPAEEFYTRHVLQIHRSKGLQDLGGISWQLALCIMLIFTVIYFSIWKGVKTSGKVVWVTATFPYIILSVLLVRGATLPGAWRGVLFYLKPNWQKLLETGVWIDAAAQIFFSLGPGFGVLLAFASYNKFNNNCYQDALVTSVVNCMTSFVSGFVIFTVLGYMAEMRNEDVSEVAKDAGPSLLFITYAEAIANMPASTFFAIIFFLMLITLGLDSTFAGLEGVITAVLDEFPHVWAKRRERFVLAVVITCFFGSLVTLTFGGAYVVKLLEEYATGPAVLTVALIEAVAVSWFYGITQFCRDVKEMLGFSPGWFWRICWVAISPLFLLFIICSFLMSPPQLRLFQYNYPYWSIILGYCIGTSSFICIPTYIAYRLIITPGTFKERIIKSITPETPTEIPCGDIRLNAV

Here are results for 14 compounds from patent publication US8053603B2, “Tetralone-based monoamine reuptake inhibitors” (Sunovion Pharmaceuticals Inc., priority 2006, dated 2011).

Each structure is given as a SMILES string. Read-outs that look alike come from different tables or passages of the source. A value given as a limit tells only on which side of the number the result lay.

T2 sequence (P23975 whole entry): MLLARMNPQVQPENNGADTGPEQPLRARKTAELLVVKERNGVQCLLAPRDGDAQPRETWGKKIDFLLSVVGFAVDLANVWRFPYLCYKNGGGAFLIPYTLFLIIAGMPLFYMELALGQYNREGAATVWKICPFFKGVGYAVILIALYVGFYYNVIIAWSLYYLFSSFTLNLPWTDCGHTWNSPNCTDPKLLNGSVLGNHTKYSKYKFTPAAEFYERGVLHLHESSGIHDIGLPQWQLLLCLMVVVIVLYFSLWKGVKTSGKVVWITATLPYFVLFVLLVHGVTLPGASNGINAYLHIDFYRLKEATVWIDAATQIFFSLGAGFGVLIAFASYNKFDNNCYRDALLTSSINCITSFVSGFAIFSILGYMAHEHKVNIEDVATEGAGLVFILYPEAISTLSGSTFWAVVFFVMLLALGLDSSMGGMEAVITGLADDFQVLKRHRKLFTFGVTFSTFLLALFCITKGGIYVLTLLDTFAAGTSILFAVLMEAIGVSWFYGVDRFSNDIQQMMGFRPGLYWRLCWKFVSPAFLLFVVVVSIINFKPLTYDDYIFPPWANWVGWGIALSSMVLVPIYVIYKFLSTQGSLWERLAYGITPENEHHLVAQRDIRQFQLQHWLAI
T1 sequence (P31645 whole entry): as the sequence (P31645 whole entry) above

As to `CC(N)C1=Cc2ccccc2[C@H](c2ccc(Cl)c(Cl)c2)C1` (single isomer, unassigned) [Compound 45], the IC50 in assay [1] amounted to 876 nM; in assay [2] (Human IC50 (nM) NET), 53 nM; in assay [3], 174 nM.

With `CC(N)C1=Cc2ccccc2[C@H](c2ccc(Cl)c(Cl)c2)C1` (single isomer, unassigned) [Compound 46], the figures for the IC50 in assay [1], in assay [2] (Human IC50 (nM) NET) and in assay [3] were 50 nM, 580 nM and 1660 nM, respectively.

Regarding `CNC(C)C1=Cc2ccccc2[C@H](c2ccc(Cl)c(Cl)c2)C1` (single isomer, unassigned) [Compound 47], the IC50 is 44 nM in assay [1], 1180 nM in assay [2] (read-out: Human IC50 (nM) NET) and 1140 nM in assay [3].

As for `CC(N)[C@@H]1Cc2ccccc2[C@H](c2ccc(Cl)c(Cl)c2)C1` (single isomer, unassigned) [Compound 52], the IC50 in assay [1] was 8 nM; in assay [2] (Human IC50 (nM) NET), 122 nM; in assay [3], 622 nM.

On to `CC([C@@H]1Cc2ccccc2[C@H](c2ccc(Cl)c(Cl)c2)C1)N(C)C` (single isomer, unassigned) [Compound 53], for which the IC50 stood at 58 nM in assay [1], 399 nM in assay [2] (read-out: Human IC50 (nM) NET) and 495 nM in assay [3].

`CC([C@@H]1Cc2ccccc2[C@H](c2ccc(Cl)c(Cl)c2)C1)N(C)C` (single isomer, unassigned) [Compound 54]: the values for the IC50 in assay [1], in assay [2] (read-out: Human IC50 (nM) NET) and in assay [3] were 815 nM, 1700 nM and 1900 nM, respectively.

In the case of `CC1C[C@@H](c2ccc(Cl)c(Cl)c2)c2ccccc2/C1=N\O` (single isomer, unassigned) [Compound 57], the IC50 in assay [1] stood at 3180 nM; in assay [2] (read-out: Human IC50 (nM) NET), 3890 nM; in assay [3], 997 nM.

`CC1C[C@@H](c2ccc(Cl)c(Cl)c2)c2ccccc2/C1=N\O` (single isomer, unassigned) [Compound 58]: the values for the IC50 in assay [1], in assay [2] (read-out: Human IC50 (nM) NET) and in assay [3] were 1700 nM, 2840 nM and 436 nM, respectively.

Consider `Clc1ccc([C@@]23CNC[C@@H]2C3)cc1Cl` (single isomer, unassigned) [DOV 21,947, (+)-1-(3,4-dichlorophenyl)-3-azabicyclo[3.1.0]hexane], for which the “immobility in the tail suspension test” value in assay [4] is given as “dose-dependent reduction in immobility”. Besides, the “affinity for the serotonin uptake sites compared with the racemic compound” value at serotonin uptake sites is recorded as “significantly greater affinity”.

For `CN[C@H]1Cc2ccc(OC)cc2[C@@H](c2ccc(Cl)c(Cl)c2)C1` (stereo in doubt) [Compound 32a.3, 4-(3,4-dichlorophenyl)-6-methoxy-N-methyl-1,2,3,4-tetrahydronaphthalen-2-amine], the IC50 in assay [1] is 4380 nM; in assay [2] (read-out: Human IC50 (nM) NET), 1050 nM; in assay [3], 1500 nM.

With `CN[C@H]1Cc2cc(OC)ccc2[C@@H](c2ccc(Cl)c(Cl)c2)C1` (stereo in doubt) [Compound 32c.3, 4-(3,4-dichlorophenyl)-7-methoxy-N-methyl-1,2,3,4-tetrahydronaphthalen-2-amine], the IC50 came to 105 nM in assay [1], 198 nM in assay [2] (read-out: Human IC50 (nM) NET) and 92 nM in assay [3].

With `CC(C1=Cc2ccccc2[C@H](c2ccc(Cl)c(Cl)c2)C1)N(C)C` (stereo partly drawn) [Compound 48, 1-((S)-4-(3,4-dichlorophenyl)-3,4-dihydronaphthalen-2-yl)-N,N-dimethylethanamine], the results for the IC50 in assay [1], in assay [2] (read-out: Human IC50 (nM) NET) and in assay [3] were 134 nM, 2720 nM and 2440 nM, respectively.

Regarding `CC(N)[C@@H]1Cc2ccccc2[C@H](c2ccc(Cl)c(Cl)c2)C1` (stereo partly drawn) [Compound 51, 1-((2S,4S)-4-(3,4-dichlorophenyl)-1,2,3,4-tetrahydronaphthalen-2-yl)ethanamine], the IC50 was found to be 2 nM in assay [1], 12 nM in assay [2] (Human IC50 (nM) NET) and 30 nM in assay [3].

As to `CC1(C)C[C@@H](c2ccc(Cl)c(Cl)c2)c2ccccc2C1N` (stereo partly drawn) [Compound 59, (4S)-4-(3,4-dichlorophenyl)-2,2-dimethyl-1,2,3,4-tetrahydronaphthalen-1-amine], the IC50 in assay [1] was 5500 nM; in assay [2] (read-out: Human IC50 (nM) NET), > 10000 nM; in assay [3] it was 1080 nM.

Usually IC50 stands for the midpoint of a concentration-inhibition curve.
